Data taken from article PMC11219936, “Development of radioiodine-labeled mequitazine for evaluation of hepatic CYP2D activity” (Frontiers in Pharmacology, 2024).
Values belong to the compound of their own block, whether it stands above or below them.

How the values were obtained:
[1] = tested on: ^125I-BMQ-metabolizing CYP isoenzymes (pooled MLMs); experiment: Inhibition of ^125I-BMQ metabolism by specific CYP inhibitors and mequitazine in pooled MLMs; conditions: for percentage of metabolites produced from ^125I-BMQ: 37°C, 15 min; for inhibition at 15 min, 10 µM: mouse, pooled mouse liver microsomes, pH 7.4, probe ^125I-BMQ
Experimental: These specific inhibitors were used to identify the CYPs involved in the biotransformation of ^125I-BMQ. The inhibitors and mequitazine (self-inhibitor) were dissolved at a concentration of 10 μM (0.8% [v/v] final concentration DMSO).
Samples were incubated at 37°C for 15 min with gentle shaking, and the reaction was stopped by addition of 100 µL of ethanol and centrifugation at 18,000 g for 5 min. The final supernatant was analyzed by TLC using methanol/acetic acid at a 100:1 ratio. The percentages of ^125I-BMQ metabolites in each sample were then calculated (n = 3).

[2] = Biological distribution of ^125I-BMQ in normal mice; assay type: in vivo, mouse; conditions: tail vein injection
Experimental: ^125I-BMQ was prepared to a specific radioactivity of 185 kBq/mL by adding saline. A total of 20 fasting 6-week-old male ddY mice were injected with ^125I-BMQ into the tail vein (18.5 kBq/100 µL/mouse), and after 2, 10, 30, 60, and 120 min, four mice each were euthanized under isoflurane, and blood, brain, thyroid, lung, heart, liver, gallbladder, stomach, pancreas, spleen, intestine, kidney, and urine tissue were collected. The tissue was weighted and the radioactivity was measured using a γ-ray counter to calculate the injected dose percent (%ID) or injected dose percent per gram of tissue (%ID/g).

[3] = tested on: CYP (pooled mouse liver microsomes, MLMs); experiment: NADPH-mediated metabolism of ^125I-BMQ in pooled mouse liver microsomes, TLC analysis; assay type: in vitro ADME; conditions: 37°C, increase with reaction time
Experimental: Animal studies were approved by the Animal Care Committee at Kanazawa University (AP-173851) and conducted in accordance with international standards for animal welfare and institutional guidelines. For preparation of pooled mouse liver microsomes (MLMs), three 6-week-old male ddY mice (Japan SLC, Tokyo, Japan) were euthanized under anesthesia using isoflurane. The liver of each mouse was removed and weighed. After adding 3 mL of Krebs-Ringer’s phosphate buffer (pH 7.4) per gram of liver, the livers were pooled and homogenized using an ultrasonic homogenizer (SONIFIER250, Branson, MO, United States). The homogenate was centrifuged for 20 min at 9,000 g, and the supernatant was centrifuged for 60 min at 100,500 g. […] The resulting precipitate was obtained as microsomes, and the protein content was determined according to the bicinchoninic acid method ([Smith et al., 1985]). […]
To analyze CYP-mediated metabolism of ^125I-BMQ, nicotinamide adenine dinucleotide phosphate (NADPH) was used as an energy source for CYP. […] The samples were then centrifuged at 18,000 g for 5 min, and the supernatant of each sample was analyzed by thin layer chromatography (TLC). […] After development and complete drying, the TLC plates were cut into 21 fractions, and the radioactivity associated with each fraction was measured using a γ-ray counter (AccuFLEX γ 7000, Aloka, Tokyo, Japan). […]

[4] = Metabolism of ^125I-BMQ in vivo: TLC analysis of radioactive products in bile; set-up: species or system mouse
Experimental: ^125I-BMQ was prepared to a specific radioactivity of 10 MBq/mL by adding saline and injected via tail vein into three mice (2.0 MBq/200 µL/mouse). […] Radioactive products in the bile were analyzed by TLC using chloroform/acetic acid/H2O at a ratio of 60:40:1. Bile was spotted directly onto the TLC plate.

[5] = Preliminary study: effect of intraperitoneal paroxetine on hepatobiliary excretion of ^99mTc-PMT, SPECT dynamic imaging; conditions: CYP2D-inhibited mice, probe ^99mTc-PMT
Experimental: SPECT imaging of ^123I-BMQ was performed to visualize the accumulation of radioactive metabolite for the purpose of assessing CYP2D activity. […] In a preliminary study, the effect of intraperitoneal administration of paroxetine on hepatobiliary excretion was investigated.

[6] = NADPH [+], pooled MLMs, inhibitor 10 μM
[7] = mouse bile after iv injection, gallbladder removed, TLC

Structure (SMILES): [125I]c1ccc(C[N+]23CCC(CC2)C(CN2c4ccccc4Sc4ccccc42)C3)cc1 (stereo not drawn) [^125I-BMQ, ^125I-4-iodobenzylmequitazine]
- Biological distribution, Blood ([2]; 2 min): 1.71 ± 0.40 %ID/g
- Biological distribution, Brain ([2]; 2 min): 0.12 ± 0.02 %ID/g
- Biological distribution, Gall bladder ([2]; 2 min): 4.16 ± 4.04 %ID/g
- Biological distribution, Heart ([2]; 2 min): 0.78 ± 0.14 %ID/g
- Biological distribution, Intestines ([2]; 2 min): 1.52 ± 0.17 %ID/organ
- Biological distribution, Kidney ([2]; 2 min): 8.04 ± 0.39 %ID/g
- Biological distribution, Liver ([2]; 2 min): 10.58 ± 0.30 %ID/g
- Biological distribution, Lung ([2]; 2 min): 0.77 ± 0.12 %ID/g
- Biological distribution, Pancreas ([2]; 2 min): 0.51 ± 0.05 %ID/g
- Biological distribution, Spleen ([2]; 2 min): 0.46 ± 0.11 %ID/g
- Biological distribution, Stomach ([2]; 2 min): 0.14 ± 0.01 %ID/organ
- Biological distribution, Thyroid ([2]; 2 min): 1.19 ± 0.23 %ID/g
- Biological distribution, Urine ([2]; 2 min): 0.10 ± 0.10 %ID/organ
- Biological distribution, Blood ([2]; 10 min): 0.32 ± 0.07 %ID/g
- Biological distribution, Brain ([2]; 10 min): 0.08 ± 0.02 %ID/g
- Biological distribution, Gall bladder ([2]; 10 min): 13.28 ± 14.03 %ID/g
- Biological distribution, Heart ([2]; 10 min): 0.47 ± 0.11 %ID/g
- Biological distribution, Intestines ([2]; 10 min): 3.90 ± 1.55 %ID/organ
- Biological distribution, Kidney ([2]; 10 min): 7.84 ± 0.50 %ID/g
- Biological distribution, Liver ([2]; 10 min): 10.55 ± 0.48 %ID/g
- Biological distribution, Lung ([2]; 10 min): 0.46 ± 0.28 %ID/g
- Biological distribution, Pancreas ([2]; 10 min): 0.41 ± 0.03 %ID/g
- Biological distribution, Spleen ([2]; 10 min): 0.26 ± 0.01 %ID/g
- Biological distribution, Stomach ([2]; 10 min): 1.33 ± 1.08 %ID/organ
- Biological distribution, Thyroid ([2]; 10 min): 0.57 ± 0.15 %ID/g
- Biological distribution, Urine ([2]; 10 min): 0.06 ± 0.07 %ID/organ
- Biological distribution, Blood ([2]; 30 min): 0.30 ± 0.16 %ID/g
- Biological distribution, Brain ([2]; 30 min): 0.14 ± 0.10 %ID/g
- Biological distribution, Gall bladder ([2]; 30 min): 24.43 ± 6.95 %ID/g
- Biological distribution, Heart ([2]; 30 min): 0.52 ± 0.23 %ID/g
- Biological distribution, Intestines ([2]; 30 min): 7.06 ± 1.89 %ID/organ
- Biological distribution, Kidney ([2]; 30 min): 8.70 ± 1.50 %ID/g
- Biological distribution, Liver ([2]; 30 min): 8.45 ± 0.99 %ID/g
- Biological distribution, Lung ([2]; 30 min): 0.40 ± 0.20 %ID/g
- Biological distribution, Pancreas ([2]; 30 min): 0.63 ± 0.25 %ID/g
- Biological distribution, Spleen ([2]; 30 min): 0.24 ± 0.08 %ID/g
- Biological distribution, Stomach ([2]; 30 min): 0.42 ± 0.36 %ID/organ
- Biological distribution, Thyroid ([2]; 30 min): 1.16 ± 0.60 %ID/g
- Biological distribution, Urine ([2]; 30 min): 0.30 ± 0.26 %ID/organ
- Biological distribution, Blood ([2]; 60 min): 0.11 ± 0.01 %ID/g
- Biological distribution, Brain ([2]; 60 min): 0.05 ± 0.01 %ID/g
- Biological distribution, Gall bladder ([2]; 60 min): 23.28 ± 9.55 %ID/g
- Biological distribution, Heart ([2]; 60 min): 1.00 ± 0.13 %ID/g
- Biological distribution, Intestines ([2]; 60 min): 14.26 ± 1.26 %ID/organ
- Biological distribution, Kidney ([2]; 60 min): 18.07 ± 2.42 %ID/g
- Biological distribution, Liver ([2]; 60 min): 6.61 ± 0.90 %ID/g
- Biological distribution, Lung ([2]; 60 min): 0.55 ± 0.13 %ID/g
- Biological distribution, Pancreas ([2]; 60 min): 0.84 ± 0.29 %ID/g
- Biological distribution, Spleen ([2]; 60 min): 0.86 ± 0.12 %ID/g
- Biological distribution, Stomach ([2]; 60 min): 0.63 ± 0.41 %ID/organ
- Biological distribution, Thyroid ([2]; 60 min): 1.03 ± 0.21 %ID/g
- Biological distribution, Urine ([2]; 60 min): 0.47 ± 0.55 %ID/organ
- Biological distribution, Blood ([2]; 120 min): 0.09 ± 0.01 %ID/g
- Biological distribution, Brain ([2]; 120 min): 0.05 ± 0.01 %ID/g
- Biological distribution, Gall bladder ([2]; 120 min): 28.93 ± 14.65 %ID/g
- Biological distribution, Heart ([2]; 120 min): 0.92 ± 0.11 %ID/g
- Biological distribution, Intestines ([2]; 120 min): 16.36 ± 1.01 %ID/organ
- Biological distribution, Kidney ([2]; 120 min): 16.10 ± 2.91 %ID/g
- Biological distribution, Liver ([2]; 120 min): 6.02 ± 1.23 %ID/g
- Biological distribution, Lung ([2]; 120 min): 0.36 ± 0.06 %ID/g
- Biological distribution, Pancreas ([2]; 120 min): 0.73 ± 0.26 %ID/g
- Biological distribution, Spleen ([2]; 120 min): 0.83 ± 0.32 %ID/g
- Biological distribution, Stomach ([2]; 120 min): 0.44 ± 0.07 %ID/organ
- Biological distribution, Thyroid ([2]; 120 min): 1.14 ± 0.08 %ID/g
- Biological distribution, Urine ([2]; 120 min): 0.11 ± 0.01 %ID/organ
- percentage of metabolites ([1]; NADPH [−], pooled MLMs, no inhibitor): 2.64%
- percentage of radioactive metabolite [3]: 3%–25%
- radioactivity in the bile that was radioactive metabolite ([4]; gallbladder removed 60 min after the mice were injected): more than 90%
- ^125I-BMQ (parent) in bile [4, 7]: no ^125I-BMQ was detected
- percentage of metabolites of ^125I-BMQ in bile [4, 7]: > 90%

Structure (SMILES): CC(=O)N1CCN(c2ccc(OCC3COC(Cn4ccnc4)(c4ccc(Cl)cc4Cl)O3)cc2)CC1 (stereo not drawn) [ketoconazole]
- percentage of ^125I-BMQ compared with NADPH [+] [1, 6]: slightly lower, but not significantly

Second part, led by results:

- percentage of metabolites produced from ^125I-BMQ [1, 6]: 1.34%
- inhibition at 15 min, 10 µM [1]: 94%
Structure (SMILES): c1ccc2c(c1)Sc1ccccc1N2CC1CN2CCC1CC2 (racemic) [mequitazine, 10-[(3RS)-1-azabicyclo [2.2.2]oct-3-ylmethyl]-10H-phenothiazine]

- percentage of metabolites produced from ^125I-BMQ [1, 6]: 12.5%
- inhibition at 15 min, 10 µM [1]: 42%
Structure (SMILES): Fc1ccc([C@@H]2CCNC[C@H]2COc2ccc3c(c2)OCO3)cc1 [paroxetine]
- effect on biliary excretory function [5]: did not affect the biliary excretory function itself

- percentage of metabolites produced from ^125I-BMQ [1, 6]: 4.47%
- inhibition at 15 min, 10 µM [1]: 80%
Structure (SMILES): C=C[C@H]1C[N@@]2CC[C@H]1C[C@@H]2[C@@H](O)c1ccnc2ccc(OC)cc12 [quinidine]
